Remaining activity data for five compounds are collected here from publication PMC5564600 (Oncotarget, 2017).

What all share (assay): biochemical
Common to all, as to assay type: binding

Assay [1] deals with T1, panel of 442 kinases (Homo sapiens, UniProt O14965).
T1 construct: purchased Ambit Biosciences (scanMAXX KINOMEscan)
T1 sequence (O14965 1-403): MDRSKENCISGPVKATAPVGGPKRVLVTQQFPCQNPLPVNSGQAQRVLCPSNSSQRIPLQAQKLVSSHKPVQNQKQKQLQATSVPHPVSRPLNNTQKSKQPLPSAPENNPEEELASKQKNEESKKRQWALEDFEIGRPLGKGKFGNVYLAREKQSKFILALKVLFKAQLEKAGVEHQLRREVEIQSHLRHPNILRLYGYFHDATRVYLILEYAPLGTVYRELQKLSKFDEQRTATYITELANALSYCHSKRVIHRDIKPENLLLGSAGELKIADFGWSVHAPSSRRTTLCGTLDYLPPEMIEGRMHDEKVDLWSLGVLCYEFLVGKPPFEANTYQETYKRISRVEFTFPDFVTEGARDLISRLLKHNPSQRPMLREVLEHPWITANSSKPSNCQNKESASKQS
Conditions: AURKA; for remaining activity at 1 µM: read-out: % of control at 1 µM.

Assay [2] addresses T2, panel of 442 kinases (Homo sapiens, UniProt O94804).
T2 construct: purchased Ambit Biosciences (scanMAXX KINOMEscan)
Conditions: kinase LOK; for remaining activity at 1 µM: read-out: % of control at 1 µM.

For assay [3], the target named is T3, panel of 442 kinases (Homo sapiens, UniProt P00533, L858R/T790M).
T3 construct: purchased Ambit Biosciences (scanMAXX KINOMEscan)
Conditions: EGFR(L858R,T790M); for remaining activity at 1 µM: read-out: % of control at 1 µM.

For assay [4], the target named is T4, panel of 442 kinases (Homo sapiens, UniProt P07948).
T4 construct: purchased Ambit Biosciences (scanMAXX KINOMEscan)
Conditions: kinase LYN; for remaining activity at 1 µM: read-out: % of control at 1 µM.

For assay [5], the target named is T5, panel of 442 kinases (Homo sapiens, UniProt P07949, M918T).
T5 construct: purchased Ambit Biosciences (scanMAXX KINOMEscan)
Conditions: kinase RET(M918T); for remaining activity at 1 µM: read-out: RET(M918T) (% of control at 1 µM).

Assay [6] concerns the target T6, panel of 442 kinases (Homo sapiens, UniProt P50750).
T6 construct: purchased Ambit Biosciences (scanMAXX KINOMEscan)
The settings on record: CDK9; for remaining activity at 1 µM: read-out: % of control at 1 µM.

Assay [7] deals with T7, panel of 442 kinases (Homo sapiens, UniProt P51957).
T7 construct: purchased Ambit Biosciences (scanMAXX KINOMEscan)
The settings on record: kinase NEK4; for remaining activity at 1 µM: read-out: % of control at 1 µM.

Assay [8] deals with T8, panel of 442 kinases (Homo sapiens, UniProt Q13523).
T8 construct: purchased Ambit Biosciences (scanMAXX KINOMEscan)
Conditions: kinase PRP4; for remaining activity at 1 µM: read-out: PRP4 (% of control at 1 µM).

Assay [9] concerns the target T9, panel of 442 kinases (Homo sapiens, UniProt Q92772).
T9 construct: purchased Ambit Biosciences (scanMAXX KINOMEscan)
T9 sequence (Q92772 1-493): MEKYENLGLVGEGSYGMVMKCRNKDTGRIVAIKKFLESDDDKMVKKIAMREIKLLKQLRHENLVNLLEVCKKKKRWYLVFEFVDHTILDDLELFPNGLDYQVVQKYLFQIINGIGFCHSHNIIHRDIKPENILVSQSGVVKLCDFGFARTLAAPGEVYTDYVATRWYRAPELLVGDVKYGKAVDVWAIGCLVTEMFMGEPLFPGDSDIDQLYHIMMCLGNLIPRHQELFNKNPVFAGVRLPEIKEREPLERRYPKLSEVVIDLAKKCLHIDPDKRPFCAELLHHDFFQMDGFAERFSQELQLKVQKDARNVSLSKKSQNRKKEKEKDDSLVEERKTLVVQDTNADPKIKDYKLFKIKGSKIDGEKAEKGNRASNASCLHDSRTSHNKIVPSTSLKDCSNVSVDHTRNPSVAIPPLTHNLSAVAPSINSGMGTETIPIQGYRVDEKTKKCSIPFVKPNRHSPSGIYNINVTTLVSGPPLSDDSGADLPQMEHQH
Conditions: CDKL2; for remaining activity at 1 µM: read-out: % of control at 1 µM.

The target of assay [10] is T10, panel of 442 kinases (Homo sapiens, UniProt Q96Q40).
T10 construct: purchased Ambit Biosciences (scanMAXX KINOMEscan)
The settings on record: kinase PFTAIRE2; for remaining activity at 1 µM: read-out: % of control at 1 µM.

Assay [11] deals with T11, panel of 442 kinases (Homo sapiens, UniProt Q9NQU5).
T11 construct: purchased Ambit Biosciences (scanMAXX KINOMEscan)
The settings on record: kinase PAK6; for remaining activity at 1 µM: read-out: % of control at 1 µM.

For assay [12], the target named is T12, panel of 442 kinases (Homo sapiens, UniProt Q9Y2H9).
T12 construct: purchased Ambit Biosciences (scanMAXX KINOMEscan)
Conditions: kinase MAST1; for remaining activity at 1 µM: read-out: % of control at 1 µM.

Assay [13] concerns the target T13, panel of 442 kinases (Homo sapiens, UniProt Q9Y6E0).
T13 construct: purchased Ambit Biosciences (scanMAXX KINOMEscan)
The settings on record: kinase MST3; for remaining activity at 1 µM: read-out: % of control at 1 µM.

The target of assay [14] is T14, panel of 442 kinases (Mycobacterium tuberculosis, UniProt P9WI81).
T14 construct: purchased Ambit Biosciences (scanMAXX KINOMEscan)
Conditions: for remaining activity at 1 µM: read-out: PKNB(M.tuberculosis) (% of control at 1 µM); for remaining activity at 10 µM: read-out: PKNB(M.tuberculosis) (% of control at 10 µM).

Where [15] appears, read: 10 µM, read-out: % of control at 10 µM.

T13 sequence (Q9Y6E0 whole entry): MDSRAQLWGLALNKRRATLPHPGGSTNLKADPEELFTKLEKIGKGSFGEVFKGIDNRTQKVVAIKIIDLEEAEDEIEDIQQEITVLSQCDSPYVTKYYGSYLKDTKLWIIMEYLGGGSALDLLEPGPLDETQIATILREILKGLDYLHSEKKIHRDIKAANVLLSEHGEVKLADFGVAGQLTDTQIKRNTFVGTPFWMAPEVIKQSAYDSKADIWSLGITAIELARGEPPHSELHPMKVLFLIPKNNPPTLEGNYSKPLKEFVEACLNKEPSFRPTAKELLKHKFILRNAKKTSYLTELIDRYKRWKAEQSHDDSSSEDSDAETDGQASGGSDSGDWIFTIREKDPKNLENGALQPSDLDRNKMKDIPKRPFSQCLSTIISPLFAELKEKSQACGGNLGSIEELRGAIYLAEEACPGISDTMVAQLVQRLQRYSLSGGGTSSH
T14 sequence (P9WI81 whole entry): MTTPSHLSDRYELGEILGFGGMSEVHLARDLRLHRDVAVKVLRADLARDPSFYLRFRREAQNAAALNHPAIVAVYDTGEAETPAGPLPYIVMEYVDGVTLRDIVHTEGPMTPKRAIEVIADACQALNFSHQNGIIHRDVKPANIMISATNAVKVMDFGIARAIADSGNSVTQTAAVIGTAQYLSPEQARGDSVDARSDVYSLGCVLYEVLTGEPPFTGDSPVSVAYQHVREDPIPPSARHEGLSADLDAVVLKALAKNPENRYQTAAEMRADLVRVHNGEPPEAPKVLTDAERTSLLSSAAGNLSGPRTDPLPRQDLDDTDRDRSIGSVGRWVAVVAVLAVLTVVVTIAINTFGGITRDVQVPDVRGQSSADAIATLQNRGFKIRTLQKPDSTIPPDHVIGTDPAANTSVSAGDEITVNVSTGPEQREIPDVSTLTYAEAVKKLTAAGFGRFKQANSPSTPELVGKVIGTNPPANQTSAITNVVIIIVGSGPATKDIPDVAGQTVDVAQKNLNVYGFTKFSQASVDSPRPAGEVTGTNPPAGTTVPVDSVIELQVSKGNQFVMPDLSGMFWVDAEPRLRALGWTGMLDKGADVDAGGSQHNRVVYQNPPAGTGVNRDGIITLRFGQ
T12 sequence (Q9Y2H9 whole entry): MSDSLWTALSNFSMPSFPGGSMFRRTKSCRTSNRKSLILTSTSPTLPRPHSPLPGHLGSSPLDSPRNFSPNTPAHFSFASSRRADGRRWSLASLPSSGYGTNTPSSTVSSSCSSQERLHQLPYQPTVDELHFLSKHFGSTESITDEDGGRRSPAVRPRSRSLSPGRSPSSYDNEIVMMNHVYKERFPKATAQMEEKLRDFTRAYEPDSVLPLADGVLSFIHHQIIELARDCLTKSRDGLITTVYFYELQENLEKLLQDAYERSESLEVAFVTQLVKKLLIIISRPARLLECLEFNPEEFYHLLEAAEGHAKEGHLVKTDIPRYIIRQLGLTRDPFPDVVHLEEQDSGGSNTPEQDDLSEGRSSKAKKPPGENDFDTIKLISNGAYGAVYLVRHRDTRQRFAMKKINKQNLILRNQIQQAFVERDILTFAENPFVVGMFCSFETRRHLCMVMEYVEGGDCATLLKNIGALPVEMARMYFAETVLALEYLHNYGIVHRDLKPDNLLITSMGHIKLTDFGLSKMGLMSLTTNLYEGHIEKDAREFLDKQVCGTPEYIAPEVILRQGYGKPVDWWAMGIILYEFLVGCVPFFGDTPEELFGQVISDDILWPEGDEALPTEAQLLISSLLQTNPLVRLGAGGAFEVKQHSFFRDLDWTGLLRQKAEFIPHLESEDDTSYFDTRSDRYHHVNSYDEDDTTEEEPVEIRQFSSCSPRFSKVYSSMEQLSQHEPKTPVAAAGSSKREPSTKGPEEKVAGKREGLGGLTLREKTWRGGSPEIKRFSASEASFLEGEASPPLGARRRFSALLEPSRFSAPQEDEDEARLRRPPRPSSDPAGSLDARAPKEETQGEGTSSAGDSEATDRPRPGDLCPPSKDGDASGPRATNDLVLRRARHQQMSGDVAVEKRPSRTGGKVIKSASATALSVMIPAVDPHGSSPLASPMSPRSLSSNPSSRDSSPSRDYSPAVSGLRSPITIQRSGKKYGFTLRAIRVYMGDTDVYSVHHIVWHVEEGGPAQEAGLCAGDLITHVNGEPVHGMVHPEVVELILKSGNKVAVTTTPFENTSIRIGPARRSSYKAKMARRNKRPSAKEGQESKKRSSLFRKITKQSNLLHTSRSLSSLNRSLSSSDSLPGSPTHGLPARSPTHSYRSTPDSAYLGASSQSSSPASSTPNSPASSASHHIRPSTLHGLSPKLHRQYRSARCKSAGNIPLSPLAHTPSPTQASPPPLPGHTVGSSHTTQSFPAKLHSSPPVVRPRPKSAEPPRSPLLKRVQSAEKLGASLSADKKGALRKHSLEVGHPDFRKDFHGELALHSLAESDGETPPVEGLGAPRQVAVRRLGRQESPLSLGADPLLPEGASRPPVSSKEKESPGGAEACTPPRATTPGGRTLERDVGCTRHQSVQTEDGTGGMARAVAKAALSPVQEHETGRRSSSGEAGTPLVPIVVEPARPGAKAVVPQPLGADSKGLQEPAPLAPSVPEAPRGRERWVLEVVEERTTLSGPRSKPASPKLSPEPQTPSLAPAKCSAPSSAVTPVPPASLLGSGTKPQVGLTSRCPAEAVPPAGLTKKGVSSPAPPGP
T11 sequence (Q9NQU5 whole entry): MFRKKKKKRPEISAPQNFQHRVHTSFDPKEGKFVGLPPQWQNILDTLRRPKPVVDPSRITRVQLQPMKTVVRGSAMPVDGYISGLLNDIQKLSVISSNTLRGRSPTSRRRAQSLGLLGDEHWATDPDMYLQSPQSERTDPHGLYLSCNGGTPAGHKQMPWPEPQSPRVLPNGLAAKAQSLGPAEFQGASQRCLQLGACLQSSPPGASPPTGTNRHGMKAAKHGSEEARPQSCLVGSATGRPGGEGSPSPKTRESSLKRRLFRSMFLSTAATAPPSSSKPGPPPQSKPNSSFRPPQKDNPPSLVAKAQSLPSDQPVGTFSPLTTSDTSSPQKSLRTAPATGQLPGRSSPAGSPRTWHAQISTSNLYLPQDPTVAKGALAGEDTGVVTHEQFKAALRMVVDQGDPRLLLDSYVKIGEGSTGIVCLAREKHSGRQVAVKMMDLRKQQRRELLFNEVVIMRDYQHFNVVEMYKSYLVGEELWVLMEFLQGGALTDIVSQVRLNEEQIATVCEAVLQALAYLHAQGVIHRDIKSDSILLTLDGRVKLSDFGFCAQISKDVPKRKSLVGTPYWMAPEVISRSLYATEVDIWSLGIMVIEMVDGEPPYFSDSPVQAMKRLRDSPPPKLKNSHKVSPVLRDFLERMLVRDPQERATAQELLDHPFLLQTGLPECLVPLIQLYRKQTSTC
T8 sequence (Q13523 whole entry): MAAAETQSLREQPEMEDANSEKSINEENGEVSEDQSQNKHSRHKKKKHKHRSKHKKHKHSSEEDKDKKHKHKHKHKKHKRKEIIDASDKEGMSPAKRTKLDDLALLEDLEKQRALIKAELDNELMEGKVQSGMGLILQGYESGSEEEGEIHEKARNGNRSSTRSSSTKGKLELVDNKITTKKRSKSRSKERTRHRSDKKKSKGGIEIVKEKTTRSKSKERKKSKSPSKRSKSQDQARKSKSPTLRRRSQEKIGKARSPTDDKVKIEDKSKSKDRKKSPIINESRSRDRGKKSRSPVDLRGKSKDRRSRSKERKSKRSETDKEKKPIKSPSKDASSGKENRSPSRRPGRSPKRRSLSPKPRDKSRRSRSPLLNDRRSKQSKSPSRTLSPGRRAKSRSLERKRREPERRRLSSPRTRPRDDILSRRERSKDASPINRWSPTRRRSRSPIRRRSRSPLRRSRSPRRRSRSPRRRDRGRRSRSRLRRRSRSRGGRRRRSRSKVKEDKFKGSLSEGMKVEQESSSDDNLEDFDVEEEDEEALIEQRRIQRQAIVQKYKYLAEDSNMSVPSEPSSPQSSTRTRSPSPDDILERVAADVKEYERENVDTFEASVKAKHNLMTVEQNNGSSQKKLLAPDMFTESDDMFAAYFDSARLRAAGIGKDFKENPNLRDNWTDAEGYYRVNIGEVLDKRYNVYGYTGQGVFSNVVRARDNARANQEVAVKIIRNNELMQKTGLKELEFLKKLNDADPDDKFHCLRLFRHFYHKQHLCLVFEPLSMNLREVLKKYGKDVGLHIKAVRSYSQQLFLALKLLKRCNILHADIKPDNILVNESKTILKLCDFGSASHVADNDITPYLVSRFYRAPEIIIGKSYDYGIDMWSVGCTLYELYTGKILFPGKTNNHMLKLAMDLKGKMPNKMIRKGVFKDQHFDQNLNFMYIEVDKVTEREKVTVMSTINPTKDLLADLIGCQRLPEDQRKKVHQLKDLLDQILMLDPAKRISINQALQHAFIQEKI
T10 sequence (Q96Q40 whole entry): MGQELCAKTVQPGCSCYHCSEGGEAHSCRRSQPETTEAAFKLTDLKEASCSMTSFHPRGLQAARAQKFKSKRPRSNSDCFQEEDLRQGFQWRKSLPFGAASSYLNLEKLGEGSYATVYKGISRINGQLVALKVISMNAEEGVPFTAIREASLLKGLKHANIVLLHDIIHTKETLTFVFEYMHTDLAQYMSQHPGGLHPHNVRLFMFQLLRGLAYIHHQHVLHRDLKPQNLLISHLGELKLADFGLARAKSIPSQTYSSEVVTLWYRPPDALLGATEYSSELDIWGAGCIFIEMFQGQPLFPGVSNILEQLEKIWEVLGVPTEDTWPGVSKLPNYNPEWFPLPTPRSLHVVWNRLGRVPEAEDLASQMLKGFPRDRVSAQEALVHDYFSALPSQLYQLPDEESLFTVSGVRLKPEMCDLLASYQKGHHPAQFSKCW

Turning to `Nc1cc(C(F)(F)F)c(-c2cc(N3CCOCC3)nc(N3CCOCC3)n2)cn1` [Buparlisib], the remaining activity at 1 µM on panel of 442 kinases [1] turned out to be 100%; on panel of 442 kinases [2], 92%; at panel of 442 kinases [3], 100%; at panel of 442 kinases [4], 84%; on panel of 442 kinases [5], 100%; on panel of 442 kinases [6], 85%. The remaining activity at 1 µM on panel of 442 kinases [7] amounted to 77%; at panel of 442 kinases [8] it was 100%; at panel of 442 kinases [9], 66%; on panel of 442 kinases [10] it was 100%; on panel of 442 kinases [11], 96%; on panel of 442 kinases [12], 53%. The remaining activity at 1 µM on panel of 442 kinases [13] and at panel of 442 kinases [14] was 100% in each case. The remaining activity at 10 µM was found to be 91% at panel of 442 kinases [1] (setting [15]); 100% at panel of 442 kinases [2] (setting [15]); 100% on panel of 442 kinases [3] (setting [15]); 100% on panel of 442 kinases [4] (setting [15]); 95% on panel of 442 kinases [5] (10 µM, read-out: RET(M918T) (% of control at 10 µM)); 85% on panel of 442 kinases [6] (setting [15]). Besides, the remaining activity at 10 µM was determined as 99% at panel of 442 kinases [7] (setting [15]); 93% on panel of 442 kinases [8] (10 µM, read-out: PRP4 (% of control at 10 µM)); 100% at panel of 442 kinases [9] (setting [15]); 100% at panel of 442 kinases [10] (setting [15]); 100% at panel of 442 kinases [11] (setting [15]); 73% at panel of 442 kinases [12] (setting [15]). In addition, the figures for the remaining activity at 10 µM at panel of 442 kinases [13] (setting [15]) and on panel of 442 kinases [14] were 100% and 73%, respectively.
In the case of `Cn1c(=O)n(-c2ccc(C(C)(C)C#N)cc2)c2c3cc(-c4cnc5ccccc5c4)ccc3ncc21` [Dactolisib, 2-methyl-2-[4-(3-methyl-2-oxo-8-quinolin-3-yl-2,3-dihydroimidazo[4,5-c]quinolin-1-yl)-phenyl] propionitrile], the remaining activity at 1 µM was 100% on panel of 442 kinases [1]; 100% on panel of 442 kinases [2]; 100% on panel of 442 kinases [3]; 87% on panel of 442 kinases [4]; 100% at panel of 442 kinases [5]; 91% at panel of 442 kinases [6]. The remaining activity at 1 µM at panel of 442 kinases [7] is 88%; on panel of 442 kinases [8] it was 100%; on panel of 442 kinases [9], 26%; at panel of 442 kinases [10], 82%; at panel of 442 kinases [11], 92%; at panel of 442 kinases [12], 100%. Besides, the remaining activity at 1 µM amounted to 82% at panel of 442 kinases [13] and 100% on panel of 442 kinases [14].
With `FC(F)c1nc2ccccc2n1-c1nc(N2CCOCC2)nc(N2CCOCC2)n1` [ZSTK474, 2-(difluoromethyl)-1-[4,6-di(4-morpholinyl)-1,3,5-triazin-2-yl]-1H-benzimidazole], the remaining activity at 1 µM at panel of 442 kinases [1] worked out at 100%; on panel of 442 kinases [2], 100%; on panel of 442 kinases [3], 100%; on panel of 442 kinases [4], 100%; at panel of 442 kinases [5], 89%; on panel of 442 kinases [6], 100%. Also, the remaining activity at 1 µM at panel of 442 kinases [7] stood at 100%; at panel of 442 kinases [8] it was 100%; on panel of 442 kinases [9], 100%; on panel of 442 kinases [10], 83%; at panel of 442 kinases [11], 100%; on panel of 442 kinases [12] it was 100%. The remaining activity at 1 µM on panel of 442 kinases [13] stood at 99%; at panel of 442 kinases [14], 86%.
`CS(=O)(=O)N1CCN(Cc2cc3nc(-c4cccc5[nH]ncc45)nc(N4CCOCC4)c3s2)CC1` [Pictilisib, 2-(1H-indazol-4-yl)-6-(4-methanesulfonyl-piperazin-1-ylmethyl)-4-morpholin-4-yl-t hieno[3,2-d]pyrimidine]: at panel of 442 kinases [14], the remaining activity at 1 µM worked out at 85% and the remaining activity at 10 µM worked out at 55%.
Consider `COc1ncc(-c2ccc3nccc(-c4ccnnc4)c3c2)cc1NS(=O)(=O)c1ccc(F)cc1F` [Omipalisib], for which the remaining activity at 1 µM at panel of 442 kinases [1], on panel of 442 kinases [2], at panel of 442 kinases [3], on panel of 442 kinases [4], on panel of 442 kinases [5] and at panel of 442 kinases [6] was 100% in each case. The remaining activity at 1 µM at panel of 442 kinases [7] turned out to be 100%; on panel of 442 kinases [8], 95%; at panel of 442 kinases [9], 90%; at panel of 442 kinases [10], 100%; on panel of 442 kinases [11] it was 100%; on panel of 442 kinases [12] it was 100%. For the same compound, the results for the remaining activity at 1 µM on panel of 442 kinases [13] and on panel of 442 kinases [14] were 100% and 67%, respectively.
